Experiments:
Format in all cases: biochemical
[1] = target: T1, recombinant human PKG1-beta (Homo sapiens, UniProt Q13976); experiment: Determination of Protein Kinase G inhibition (selectivity); conditions: from IC50 values
T1 construct: PKG1-beta (full-length, with N-terminal His-tag); His-tag (N); purchased Millipore GmbH, Schwalbach, Germany
T1 sequence (Q13976 1-686 isoform Q13976-2): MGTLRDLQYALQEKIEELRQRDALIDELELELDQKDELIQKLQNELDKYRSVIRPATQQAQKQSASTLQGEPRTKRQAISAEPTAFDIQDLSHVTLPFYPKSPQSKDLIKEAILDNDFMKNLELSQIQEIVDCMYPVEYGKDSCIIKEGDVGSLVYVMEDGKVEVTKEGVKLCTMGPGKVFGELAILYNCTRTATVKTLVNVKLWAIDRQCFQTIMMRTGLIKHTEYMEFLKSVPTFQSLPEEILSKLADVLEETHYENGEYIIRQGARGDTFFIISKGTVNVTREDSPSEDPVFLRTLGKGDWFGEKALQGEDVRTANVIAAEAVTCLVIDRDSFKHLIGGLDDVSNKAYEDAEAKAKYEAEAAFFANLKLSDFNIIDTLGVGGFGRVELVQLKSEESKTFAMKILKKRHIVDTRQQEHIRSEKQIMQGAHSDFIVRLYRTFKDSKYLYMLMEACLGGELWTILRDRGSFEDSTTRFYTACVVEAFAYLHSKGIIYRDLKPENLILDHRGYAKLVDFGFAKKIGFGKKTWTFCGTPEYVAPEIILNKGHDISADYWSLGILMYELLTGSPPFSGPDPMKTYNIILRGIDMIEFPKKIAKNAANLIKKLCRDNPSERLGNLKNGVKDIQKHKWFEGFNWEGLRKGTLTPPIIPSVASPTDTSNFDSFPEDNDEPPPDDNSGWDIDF
Experimental: (§1) 2) Determination of Protein Kinase a and Protein Kinase G Inhibition
(§2) To measure PKA and PKG1-beta inhibition, IC50 values were determined according to the following protocol:
(§3) Active recombinant human PKG1-beta (full-length, with N-terminal His-tag) was purchased from Millipore GmbH, Schwalbach, Germany. Active recombinant human PKA (residues 1-351, N-terminal His-tag) was obtained from Invitrogen, Karlsruhe, Germany. The peptide substrate, Fluorescein-[…]-COOH, was obtained from JPT Peptide Technologies, Berlin, Germany. Adenosine-5′-triphosphate (ATP), bovine serum albumine (BSA), dimethylsulphoxide (DMSO), 4-(2-Hydroxyethyl)piperazine-1-ethanesulfonic acid (Hepes), Brij-35, dithiothreitol (DTT) and Pluronic F-68 were purchased from Sigma-Aldrich, Munich, Germany. Tris(hydroxymethyl)-aminomethane (Tris), magnesium chloride, NaOH, 1M HCl and EDTA were obtained from Merck Biosciences, Darmstadt, Germany. “Complete” protease inhibitor was from Roche Diagnostics, Mannheim, Germany. Test compounds were diluted to the appropriate concentrations in buffer 1 (25 mM Tris-HCl, pH 7.4, 5 mM MgCl2, 2 mM DTT, 0.02% (w/v) BSA, 0.01% Pluronic F-68 and 3% DMSO). PKG1-beta and PKA were diluted to concentrations of 150 ng/ml and 30 ng/ml, respectively, in buffer 2. The peptide substrate and ATP were diluted to concentrations of 3 μM and 120 μM, respectively, in the buffer 2. Two μl of the compound solution were mixed with 2 μl of the diluted enzyme in a 384-well small volume microtiter plate (Greiner, Bio-One, Frickenhausen, Germany), and the kinase reaction was initiated by addition of 2 μl of the solution containing peptide substrate and ATP. After 60 min incubation at 32° C., the reaction was stopped by addition of 20 μl of a solution containing 100 mM Hepes-NaOH, pH 7.4, 0.015% (v/v) Brij-35, 45 mM EDTA and 0.227% chip coating reagent 1 (Caliper Lifescience Inc, Hopkinton, Mass.). Phosphorylation of the substrate peptide was then detected on a Caliper 3000 instrument essentially as described by Pommereau et al (J. Biomol. Screening 9(5), 409-416, 2004). Separation conditions were as follows: Pressure −1.3 psi, upstream voltage −1562 V, downstream voltage −500 V, sample sip time 200 ms, Positive controls (buffer 1 instead of compound) and negative controls (buffer 1 instead of compound and buffer 2 instead of kinase solution) were run in parallel on each plate. The following products/compounds were tested in said assay by using the respective form (salt or free base) obtained as in the examples described above and the following activities were measured.

[2] = target: T2, human recombinant ROCK II (Homo sapiens, UniProt O75116); experiment: Determination of Rho kinase inhibition (ROCK II, Caliper peptide phosphorylation assay); conditions: respective form (salt or free base) as obtained in the examples, 60 min at 32° C.
T2 construct: recombinant human ROCK-II residues 11-552; His6 (N); purchased Millipore GmbH, Schwalbach, Germany
T2 sequence (O75116 11-552): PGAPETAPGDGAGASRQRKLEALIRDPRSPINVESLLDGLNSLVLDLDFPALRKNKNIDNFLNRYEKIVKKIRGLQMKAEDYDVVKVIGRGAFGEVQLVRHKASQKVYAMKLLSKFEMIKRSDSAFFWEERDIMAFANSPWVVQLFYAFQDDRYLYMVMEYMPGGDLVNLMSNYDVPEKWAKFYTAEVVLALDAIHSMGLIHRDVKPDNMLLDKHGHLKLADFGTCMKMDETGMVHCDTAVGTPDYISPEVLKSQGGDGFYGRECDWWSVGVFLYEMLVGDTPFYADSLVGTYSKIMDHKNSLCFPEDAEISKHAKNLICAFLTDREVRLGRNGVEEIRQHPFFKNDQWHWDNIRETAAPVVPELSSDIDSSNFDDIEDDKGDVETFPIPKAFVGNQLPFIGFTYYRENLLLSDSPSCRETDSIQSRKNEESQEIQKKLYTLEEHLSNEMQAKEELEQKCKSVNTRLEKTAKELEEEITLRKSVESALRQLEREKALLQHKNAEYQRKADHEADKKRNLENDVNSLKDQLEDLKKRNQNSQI
How it was run: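 Enzyme: active N-terminal His6-tagged recombinant human ROCK-II, residues 11-552. Substrate: a fluorescein-labelled peptide, with ATP. IC50 values were determined.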

recombinant human PKA = target: T3, recombinant human PKA (Homo sapiens, UniProt P17612); experiment: Determination of Protein Kinase A inhibition (selectivity); conditions: from IC50 values
T3 construct: recombinant human PKA (residues 1-351, N-terminal His-tag); His-tag (N); purchased Invitrogen, Karlsruhe, Germany
Experimental: as §1, §2, §3

Row | Structure (SMILES) | Selectivity against PKG [1] [fold] | IC50 [2] [nM] | Selectivity against PKA (recombinant human PKA) [fold] | pIC50 [2]
1 | CCC(N)C1(CC)CCC(Oc2cc3cc[nH]c(=O)c3cc2Cl)CC1 (single isomer, unassigned) [Example 107] | >1000 | ≤ 10 | >1000 | –
2 | CCC(N)C1(CC)CCC(Oc2cc3cc[nH]c(=O)c3cc2Cl)CC1 (single isomer, unassigned) [Example 108] | >10 | – | >1000 | +++++++ (8.0 ≦ pIC50)
3 | CC[C@]1(C(C)N)CC[C@@H](Oc2cc3cc[nH]c(=O)c3cc2C)CC1 (stereo partly drawn) [Example 37, cis-6-[4-(1-Amino-ethyl)-4-ethyl-cyclohexyloxy]-7-methyl-2H-isoquinolin-1-one] | >100 | 10 to 100 | >300 | –
4 | CCCC[C@]1(C(N)CC)CC[C@@H](Oc2cc3cc[nH]c(=O)c3cc2Cl)CC1 (stereo partly drawn) [Example 38, cis-6-[4-(1-Amino-propyl)-4-butyl-cyclohexyloxy]-7-chloro-2H-isoquinolin-1-one] | >300 | ≤ 10 | >1000 | –
5 | CCC(N)[C@]1(CC)CC[C@H](Oc2cc3cc[nH]c(=O)c3cc2C)CC1 (stereo partly drawn) [Example 52, cis-6-[4-(1-Amino-propyl)-4-ethyl-cyclohexyloxy]-7-methyl-2H-isoquinolin-1-one] | >10 | 100 to 1000 | >100 | –
6 | CCC(N)[C@]1(CC)CC[C@H](Oc2c(C)cc3c(=O)[nH]ccc3c2C)CC1 (stereo partly drawn) [Example 54, cis-6-[4-(1-Amino-propyl)-4-ethyl-cyclohexyloxy]-5,7-dimethyl-2H-isoquinolin-1-one] | >10 | 100 to 1000 | >10 | –
7 | CCC(N)[C@]1(OC)CC[C@H](Oc2cc3cc[nH]c(=O)c3cc2Cl)CC1 (stereo partly drawn) [Example 58, cis-6-[4-(1-Amino-propyl)-4-methoxy-cyclohexyloxy]-7-chloro-2H-isoquinolin-1-one] | >300 | 10 to 100 | >300 | –
8 | C[C@]1(C(N)c2ccccc2)CC[C@@H](Oc2cc3cc[nH]c(=O)c3cc2Cl)CC1 (stereo partly drawn) [Example 61, cis-6-[4-(Amino-phenyl-methyl)-4-methyl-cyclohexyloxy]-7-chloro-2H-isoquinolin-1-one] | >300 | 10 to 100 | >100 | –
9 | CCCC(N)[C@]1(C)CC[C@H](Oc2cc3cc[nH]c(=O)c3cc2Cl)CC1 (stereo partly drawn) [Example 62, cis-6-[4-(1-Amino-butyl)-4-methyl-cyclohexyloxy]-7-chloro-2H-isoquinolin-1-one] | >100 | ≤ 10 | >1000 | –
10 | CC(C)CC(N)[C@]1(CC2CC2)CC[C@H](Oc2cc3cc[nH]c(=O)c3cc2Cl)CC1 (stereo partly drawn) [Example 64, cis-6-[4-(1-Amino-3-methyl-butyl)-4-cyclopropyl-methyl-cyclohexyloxy]-7-chloro-2H-isoquinolin-1-one] | >300 | ≤ 10 | >1000 | –
11 | CC[C@]1(C(N)C2CC2)CC[C@@H](Oc2cc3cc[nH]c(=O)c3cc2Cl)CC1 (stereo partly drawn) [Example 70, cis-6-[4-(Amino-cyclopropyl-methyl)-4-ethyl-cyclohexyloxy]-7-chloro-2H-isoquinolin-1-one] | >1000 | ≤ 10 | >1000 | –
12 | CC(N)[C@]1(C2CC2)CC[C@H](Oc2cc3cc[nH]c(=O)c3cc2Cl)CC1 (stereo partly drawn) [Example 72, cis-6-[4-(1-Amino-ethyl)-4-cyclopropyl-cyclohexyloxy]-7-chloro-2H-isoquinolin-1-one] | >100 | 10 to 100 | >300 | –

Continued, values first:

Row | Selectivity against PKG [1] [fold] | IC50 [2] [nM] | Selectivity against PKA (recombinant human PKA) [fold] | pIC50 [2] | Structure (SMILES)
13 | >1000 | ≤ 10 | >1000 | – | CCC(N)C1(C(F)(F)F)CCC(Oc2cc3cc[nH]c(=O)c3cc2Cl)CC1 (single isomer, unassigned) [Example 103, 6-[4-(1-Amino-propyl)-4-trifluoromethyl-cyclohexyloxy]-7-chloro-2H-isoquinolin-1-one]
14 | >1000 | ≤ 10 | >1000 | – | CCC(N)C1(C2CCOCC2)CCC(Oc2cc3cc[nH]c(=O)c3cc2Cl)CC1 (single isomer, unassigned) [Example 106]
15 | >300 | ≤ 10 | >1000 | – | CCC(N)[C@]1(CC)CC[C@H](Oc2cc3cc[nH]c(=O)c3cc2Cl)CC1 (stereo partly drawn) [Example 34, cis-6-[4-(1-Amino-propyl)-4-ethyl-cyclohexyloxy]-7-chloro-2H-isoquinolin-1-one]
16 | >10 | 10 to 100 | >300 | – | CCCC(N)[C@]1(C(C)C)CC[C@H](Oc2cc3cc[nH]c(=O)c3cc2Cl)CC1 (stereo partly drawn) [Example 35, cis-6-[4-(1-Amino-butyl)-4-isopropyl-cyclohexyloxy]-7-chloro-2H-isoquinolin-1-one]
17 | >10 | 10 to 100 | >300 | – | CCC(N)[C@]1(CC)CC[C@H](Oc2cc3cc[nH]c(=O)c3cc2F)CC1 (stereo partly drawn) [Example 50, cis-6-[4-(1-Amino-propyl)-4-ethyl-cyclohexyloxy]-7-fluoro-2H-isoquinolin-1-one]
18 | >100 | 10 to 100 | >100 | – | CCC(N)[C@]1(OC)CC[C@@H](Oc2cc3cc[nH]c(=O)c3cc2Cl)CC1 (stereo partly drawn) [Example 59, trans-6-[4-(1-Amino-propyl)-4-methoxy-cyclohexyloxy]-7-chloro-2H-isoquinolin-1-one]
19 | >100 | 10 to 100 | >300 | – | CCC(N)[C@]1(C2CCCCC2)CC[C@H](Oc2cc3cc[nH]c(=O)c3cc2Cl)CC1 (stereo partly drawn) [Example 65]
20 | >300 | ≤ 10 | >1000 | – | NC(C1CC1)[C@]1(CC2CCOCC2)CC[C@H](Oc2cc3cc[nH]c(=O)c3cc2Cl)CC1 (stereo partly drawn) [Example 68, cis-6-[4-(Amino-cyclopropyl-methyl)-4-(tetrahydro-pyran-4-ylmethyl)-cyclohexyloxy]-7-chloro-2H-isoquinolin-1-one]
21 | >300 | ≤ 10 | >1000 | – | C[C@]1(C(N)C2CC2)CC[C@@H](Oc2cc3cc[nH]c(=O)c3cc2Cl)CC1 (stereo partly drawn) [Example 69, cis-6-[4-(Amino-cyclopropyl-methyl)-4-methyl-cyclohexyloxy]-7-chloro-2H-isoquinolin-1-one]

Source: US8399482B2, “6-substituted isoquinolines and isoquinolinones” (Sanofi, priority 2008, dated 2013)
